According to patent publication US12146004B2, “Polymyxin compounds and uses thereof” (priority 2014, dated 2024):
Converted amounts (≈) assume the structure as drawn. Read-outs that look alike come from different tables or passages of the source. Bridge positions count the residues as written; N and C are the ends. Square brackets hold non-standard residues; d marks the D form. Peptide text beside a SMILES is read from it. * marks the point of attachment. X14 = CC(C)c1ccc(CO[C@@H](CCN)C(=O)*)cc1; X16 = Cc1cc(C)cc(CO[C@@H](CCN)C(=O)*)c1; X26 = NCC[C@H](OCC1CCCCC1)C(=O)*; dCha = N[C@H](CC1CCCCC1)C(=O)O; X15 = NCCC(CC1CCCC1)C(=O)*; X19 = NCCC(C(=O)*)C1CCCCC1; Dab = NCC[C@H](N)C(=O)O; Dap = NC[C@H](N)C(=O)O

What was measured:
Type in all cases: cell-based
Acinetobacter baumannii = tested on: Acinetobacter baumannii
Outline: (§1)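 MIC (μg/mL) from susceptibility testing; up to nine strains per species, incl. resistant and Polymyxin-elevated-MIC strains.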

Escherichia coli = tested on: Escherichia coli
Outline: as §1

Klebsiella pneumoniae = tested on: Klebsiella pneumoniae
Outline: as §1

Pseudomonas aeruginosa = tested on: Pseudomonas aeruginosa
Outline: as §1

HK-2 cells = conditions: HK-2 cells
From the text: Values are reported relative to Polymyxin B.

Molecule	MIC A. baumanii 053 (Acinetobacter baumannii)	MIC A. baumanii 056 (Acinetobacter baumannii)	MIC A. baumanii ATCC BAA-747 (Acinetobacter baumannii)	MIC A. baumanii NCTC 13424 (Acinetobacter baumannii)	MIC E. coli 058 (Escherichia coli)	MIC E. coli 061 (Escherichia coli)	MIC E. coli ATCC 25922 (Escherichia coli)	MIC E. coli NCTC 9001 (Escherichia coli)	MIC K. pneumoniae 063 (Klebsiella pneumoniae)	MIC K. pneumoniae 065 (Klebsiella pneumoniae)	MIC K. pneumoniae ATCC 13882 (Klebsiella pneumoniae)	MIC P. aeruginosa 068 (Pseudomonas aeruginosa)	MIC P. aeruginosa 070 (Pseudomonas aeruginosa)	MIC P. aeruginosa ATCC 27853 (Pseudomonas aeruginosa)	MIC P. aeruginosa CCUG 59347 (Pseudomonas aeruginosa)	further results
2-(2- Aminoethyl) octanoyl L- Thr-L-Dap- polymyxin heptapeptide [Example C6, reference compound]	–	–	–	–	–	–	–	–	–	–	–	–	–	–	–	MIC A. baumanii 053 (Acinetobacter baumannii; strain 053): 32 µg/mL; MIC A. baumanii 056 (Acinetobacter baumannii; strain 056): 32 µg/mL; MIC A. baumanii ATCC BAA-747 (Acinetobacter baumannii; strain ATCC BAA-747): 0.06 µg/mL; MIC A. baumanii NCTC 13424 (Acinetobacter baumannii; strain NCTC 13424): 0.03 µg/mL; MIC E. coli 058 (Escherichia coli; strain 058): 1 µg/mL; MIC E. coli 061 (Escherichia coli; strain 061): 8 µg/mL; MIC E. coli ATCC 25922 (Escherichia coli; strain ATCC 25922): 0.125 µg/mL; MIC E. coli NCTC 9001 (Escherichia coli; strain NCTC 9001): 0.06 µg/mL; MIC K. pneumoniae 063 (Klebsiella pneumoniae; strain 063): 8 µg/mL; MIC K. pneumoniae 065 (Klebsiella pneumoniae; strain 065): 0.25 µg/mL; MIC K. pneumoniae ATCC 4352 (Klebsiella pneumoniae; strain ATCC 4352): 0.06 µg/mL; MIC K. pneumoniae ATCC 13882 (Klebsiella pneumoniae; strain ATCC 13882): 0.125 µg/mL; MIC P. aeruginosa 068 (Pseudomonas aeruginosa; strain 068): 2 µg/mL; MIC P. aeruginosa 070 (Pseudomonas aeruginosa; strain 070): 8 µg/mL; MIC P. aeruginosa ATCC 27853 (Pseudomonas aeruginosa; strain ATCC 27853): 0.125 µg/mL; MIC P. aeruginosa CCUG 59347 (Pseudomonas aeruginosa; strain CCUG 59347): 0.125 µg/mL; HK-2 IC50 (HK-2 cells): 51 µg/mL
CC(C)C[C@@H]1NC(=O)[C@@H](CC2CCCCC2)NC(=O)[C@H](CCN)NC(=O)[C@@H](NC(=O)[C@H](CCN)NC(=O)[C@@H](NC(=O)C(CCN)CC2CCCC2)[C@@H](C)O)CCNC(=O)[C@H]([C@@H](C)O)NC(=O)[C@H](CCN)NC(=O)[C@H](CCN)NC1=O (stereo partly drawn) [Example 83, 4-amino-2-(cyclopentylmethyl) butanoyl polymyxin [D-cyclohexylalanine-6]nonapeptide] (X15-T[Dab][Dab][Dab][dCha]L[Dab][Dab]T; lactam 3-C)	>64 µg/mL	64 µg/mL (≈ 56.3 µM)	0.125 µg/mL (≈ 0.11 µM)	0.06 µg/mL (≈ 0.0528 µM)	4 µg/mL (≈ 3.52 µM)	16 µg/mL (≈ 14.1 µM)	0.5 µg/mL (≈ 0.44 µM)	0.06 µg/mL (≈ 0.0528 µM)	16 µg/mL (≈ 14.1 µM)	1 µg/mL (≈ 0.88 µM)	0.25 µg/mL (≈ 0.22 µM)	2 µg/mL (≈ 1.76 µM)	8 µg/mL (≈ 7.04 µM)	0.25 µg/mL (≈ 0.22 µM)	0.25 µg/mL (≈ 0.22 µM)	–
CC(C)C[C@@H]1NC(=O)[C@@H](CC2CCCCC2)NC(=O)[C@H](CCN)NC(=O)[C@@H](NC(=O)[C@H](CN)NC(=O)[C@@H](NC(=O)[C@H](CCN)OCC2CCCCC2)[C@@H](C)O)CCNC(=O)[C@H]([C@@H](C)O)NC(=O)[C@H](CCN)NC(=O)[C@H](CCN)NC1=O [Example 84, (S)-4-amino-2-(cyclohexyl-methoxy) butanoyl L-Thr-L-Dap-polymyxin [D-cyclohexylalanine-6]heptapeptide.] (X26-T[Dap][Dab][Dab][dCha]L[Dab][Dab]T; lactam 3-C)	>32 µg/mL	32 µg/mL (≈ 27.8 µM)	0.25 µg/mL (≈ 0.217 µM)	0.25 µg/mL (≈ 0.217 µM)	8 µg/mL (≈ 6.94 µM)	8 µg/mL (≈ 6.94 µM)	0.125 µg/mL (≈ 0.108 µM)	–	32 µg/mL (≈ 27.8 µM)	4 µg/mL (≈ 3.47 µM)	0.25 µg/mL (≈ 0.217 µM)	–	8 µg/mL (≈ 6.94 µM)	0.25 µg/mL (≈ 0.217 µM)	0.5 µg/mL (≈ 0.434 µM)	–
CC(C)C[C@@H]1NC(=O)[C@@H](CC2CCCCC2)NC(=O)[C@H](CCN)NC(=O)[C@@H](NC(=O)[C@H](CN)NC(=O)[C@@H](NC(=O)C(CCN)C2CCCCC2)[C@@H](C)O)CCNC(=O)[C@H]([C@@H](C)O)NC(=O)[C@H](CCN)NC(=O)[C@H](CCN)NC1=O (stereo partly drawn) [Example 85, 4-amino-2-cyclohexylbutanoyl L-Thr-L-Dap-polymyxin [D-cyclohexylalanine-6]heptapeptide.] (X19-T[Dap][Dab][Dab][dCha]L[Dab][Dab]T; lactam 3-C)	64 µg/mL (≈ 57 µM)	64 µg/mL (≈ 57 µM)	0.125 µg/mL (≈ 0.111 µM)	0.125 µg/mL (≈ 0.111 µM)	4 µg/mL (≈ 3.56 µM)	16 µg/mL (≈ 14.3 µM)	0.125 µg/mL (≈ 0.111 µM)	0.06 µg/mL (≈ 0.0535 µM)	8 µg/mL (≈ 7.13 µM)	0.5 µg/mL (≈ 0.445 µM)	0.5 µg/mL (≈ 0.445 µM)	2 µg/mL (≈ 1.78 µM)	4 µg/mL (≈ 3.56 µM)	0.5 µg/mL (≈ 0.445 µM)	0.5 µg/mL (≈ 0.445 µM)	–
CC(C)C[C@@H]1NC(=O)[C@@H](CC2CCCCC2)NC(=O)[C@H](CCN)NC(=O)[C@@H](NC(=O)[C@H](CN)NC(=O)[C@@H](NC(=O)[C@H](CCN)OCc2ccc(C(C)C)cc2)[C@@H](C)O)CCNC(=O)[C@H]([C@@H](C)O)NC(=O)[C@H](CCN)NC(=O)[C@H](CCN)NC1=O [Example 88, (S)-4-amino-2-((4-isopropylbenzyl)oxy)butanoyl L-Thr-L-Dap-polymyxin [D-cyclohexylalanine-6]heptapeptide] (X14-T[Dap][Dab][Dab][dCha]L[Dab][Dab]T; lactam 3-C)	64 µg/mL (≈ 53.9 µM)	32 µg/mL (≈ 26.9 µM)	0.25 µg/mL (≈ 0.21 µM)	0.125 µg/mL (≈ 0.105 µM)	2 µg/mL (≈ 1.68 µM)	16 µg/mL (≈ 13.5 µM)	0.25 µg/mL (≈ 0.21 µM)	0.25 µg/mL (≈ 0.21 µM)	64 µg/mL (≈ 53.9 µM)	0.5 µg/mL (≈ 0.421 µM)	0.25 µg/mL (≈ 0.21 µM)	4 µg/mL (≈ 3.37 µM)	4 µg/mL (≈ 3.37 µM)	0.25 µg/mL (≈ 0.21 µM)	0.5 µg/mL (≈ 0.421 µM)	–
Cc1cc(C)cc(CO[C@@H](CCN)C(=O)N[C@H](C(=O)N[C@@H](CN)C(=O)N[C@H]2CCNC(=O)[C@H]([C@@H](C)O)NC(=O)[C@H](CCN)NC(=O)[C@H](CCN)NC(=O)[C@H](CC(C)C)NC(=O)[C@@H](CC3CCCCC3)NC(=O)[C@H](CCN)NC2=O)[C@@H](C)O)c1 [Example 90, (S)-4-amino-2-((3,5-dimethylbenzyl)oxy)butanoyl L-Thr-L-Dap-polymyxin [D-cyclohexylalanine-6]heptapeptide] (X16-T[Dap][Dab][Dab][dCha]L[Dab][Dab]T; lactam 3-C)	>64 µg/mL	32 µg/mL (≈ 27.2 µM)	0.125 µg/mL (≈ 0.106 µM)	0.06 µg/mL (≈ 0.0511 µM)	2 µg/mL (≈ 1.7 µM)	16 µg/mL (≈ 13.6 µM)	0.125 µg/mL (≈ 0.106 µM)	0.125 µg/mL (≈ 0.106 µM)	64 µg/mL (≈ 54.5 µM)	4 µg/mL (≈ 3.41 µM)	0.25 µg/mL (≈ 0.213 µM)	4 µg/mL (≈ 3.41 µM)	16 µg/mL (≈ 13.6 µM)	0.125 µg/mL (≈ 0.106 µM)	0.25 µg/mL (≈ 0.213 µM)	–
